Results published in article PMC10518257 (Nature Cancer, 2023).
Where “and” joins values, the source holds several entries; their conditions need not be identical. Equal entries are not always repeated.

What was measured:
MMNK1 cholangiocytes = assay: Growth inhibition (alamarBlue, 96 h); format: cell-based, human; settings: for raw viability signal (Source Data Fig. 3b-c): MMNK, replicates
[1] = Animal weight of tumor-bearing mice
Ba/F3-RET^M918T = assay: Growth inhibition assay in Ba/F3 cells (CellTiter-Glo, 72 h); format: cell-based; settings: Mus musculus, BaF3, 72 h, Ba/F3-RET^M918T, CellTiter-Glo, 72 h; read-out: GI50 value (Mean ± SD)
LC-2/ad cells = assay: Growth inhibition (alamarBlue, 96 h); format: cell-based, human; settings: for raw viability signal (Source Data Fig. 3b-c): LC-2/Ad, replicate sets

Structure (SMILES): COc1cc2c(Nc3ccc(Br)cc3F)ncnc2cc1OCC1CCN(C)CC1 [Vandetanib]
- IC50 (MMNK1 cholangiocytes; Homo sapiens, read-out: IC50 for Inhibition of Growth (95% CI), MMNK1, alamarBlue, 96 h): 1900 nM
- raw viability signal (Source Data Fig. 3b-c) (MMNK1 cholangiocytes; 0.01 nM): 15966.6 and 15969.8
- raw viability signal (Source Data Fig. 3b-c) (MMNK1 cholangiocytes; 0.1 nM): 15836.6
- raw viability signal (Source Data Fig. 3b-c) (MMNK1 cholangiocytes; 1 nM): 15572.3
- raw viability signal (Source Data Fig. 3b-c) (MMNK1 cholangiocytes; 10 nM): 14924.4 and 14679.1
- raw viability signal (Source Data Fig. 3b-c) (MMNK1 cholangiocytes; 100 nM): 14912.5 and 14740.1
- raw viability signal (Source Data Fig. 3b-c) (MMNK1 cholangiocytes; 1000 nM): 12405.8
- raw viability signal (Source Data Fig. 3b-c) (MMNK1 cholangiocytes; 10000 nM): 1136.86 and 1108.37
- Animal Weight ([1]; ECLC5B xenograft, P = 0.01, animals killed early): significant weight loss
- Animal Weight ([1]; ECLC5 Xenografts, 100 mg/kg QD, treatment day 7, individual animals, 100 mg/kg): 26 g and 24 g and 22 g (3×)
- Animal Weight ([1]; ECLC5 Xenografts, 100 mg/kg QD, treatment day 11, individual animals, 100 mg/kg): 25 g and 23 g and 22 g (3×)
- Animal Weight ([1]; ECLC5 Xenografts, 100 mg/kg QD, treatment day 14, individual animals, 100 mg/kg): 24 g and 22 g (2×) and 21 g (2×)
- Animal Weight ([1]; ECLC5 Xenografts, 100 mg/kg QD, treatment day 19, individual animals, 100 mg/kg): 22 g (2×) and 21 g (3×)
- Animal Weight ([1]; ECLC5 Xenografts, 100 mg/kg QD, treatment day 22, individual animals): 20 g
- Animal Weight ([1]; ECLC5 Xenografts, 100 mg/kg QD, treatment day 25, individual animals): 20 g
- Animal Weight ([1]; LUAD-0057AS1 PDX, 50 mg per kg QD, P = 0.0015): significant reduction in animal weight
- Animal Weight ([1]; LUAD-0057AS1 PDX, 50 mg/kg QD, treatment day 0, individual animals, 50 mg/kg): 24 g (3×) and 23 g (3×) and 25 g (2×)
- Animal Weight ([1]; LUAD-0057AS1 PDX, 50 mg/kg QD, treatment day 3, individual animals, 50 mg/kg): 21 g (6×) and 22 g and 23 g
- Animal Weight ([1]; LUAD-0057AS1 PDX, 50 mg/kg QD, treatment day 7, individual animals, 50 mg/kg): 21 g (3×) and 23 g and 22 g (3×) and 20 g
- Animal Weight ([1]; LUAD-0057AS1 PDX, 50 mg/kg QD, treatment day 10, individual animals, 50 mg/kg): 20 g (2×) and 22 g (2×) and 21 g (4×)
- Animal Weight ([1]; LUAD-0057AS1 PDX, 50 mg/kg QD, treatment day 14, individual animals, 50 mg/kg): 20 g (2×) and 21 g (6×)
- Animal Weight ([1]; LUAD-0057AS1 PDX, 50 mg/kg QD, treatment day 19, individual animals, 50 mg/kg): 20 g (4×) and 19 g (2×) and 21 g (2×)
- Animal Weight ([1]; LUAD-0057AS1 PDX, 50 mg/kg QD, treatment day 23, individual animals, 50 mg/kg): 19 g and 20 g
- Animal Weight ([1]; NIH-3T3-CCDC6::RET xenografts, 100 mg/kg QD, day 0, 100 mg/kg): 22 g and 26 g and 24 g and 21 g and 20 g
- Animal Weight ([1]; NIH-3T3-CCDC6::RET xenografts, 100 mg/kg QD, day 2, 100 mg/kg): 22 g and 23 g and 21 g and 19 g
- Animal Weight ([1]; NIH-3T3-CCDC6::RET xenografts, 100 mg/kg QD, day 5, 100 mg/kg): 22 g and 26 g and 24 g and 20 g
- Animal Weight ([1]; NIH-3T3-CCDC6::RET xenografts, 100 mg/kg QD, day 8, 100 mg/kg): 22 g and 25 g and 23 g and 21 g and 19 g
- GI50 (Ba/F3-RET^M918T): 39.9 ± 15.2 nM
- IC50 (LC-2/ad cells; Homo sapiens, read-out: IC50 for Inhibition of Growth (95% CI), LC-2/ad, alamarBlue, 96 h): 61 nM
- raw viability signal (Source Data Fig. 3b-c) (LC-2/ad cells; 0.01 nM): 12607.4 and 20233.4
- raw viability signal (Source Data Fig. 3b-c) (LC-2/ad cells; 0.1 nM): 13108.5 and 20488.5
- raw viability signal (Source Data Fig. 3b-c) (LC-2/ad cells; 1 nM): 11956.2 and 19814.6
- raw viability signal (Source Data Fig. 3b-c) (LC-2/ad cells; 10 nM): 11578.8 and 17158.6
- raw viability signal (Source Data Fig. 3b-c) (LC-2/ad cells; 100 nM): 4528.4 and 9691.17
- raw viability signal (Source Data Fig. 3b-c) (LC-2/ad cells; 1000 nM): 1439.52 and 1771.38
- raw viability signal (Source Data Fig. 3b-c) (LC-2/ad cells; 10000 nM): 850.396
